Test results published in publication PMC9450471 (Computational Biology and Chemistry, 2022).
“And” between values parts separate entries of the source, which are not always exact repeats. Equal values may be shown once. Read-outs that look alike come from different tables or passages of the source.

Tested on: SARS-CoV-2 (Omicron variant, B.1.1.529/BA.5 sublineage)
Format: cell-based
Conditions: for time at which utmost effectiveness against the Omicron variant is reached: after administration/treatment starter

SMILES	100% CPE Inhibitory Concentration (CPEIC100)	also measured
COc1nc(N)nc2c1ncn2[C@@H]1O[C@H](CO)[C@@H](O)[C@@H]1O [Nelarabine]	4.105 ± 0.149 µM	–
OC[C@H]1O[C@@H](n2cnc3c(N[C@@H]4CCOC4)ncnc32)[C@H](O)[C@@H]1O [Tecadenoson]	7.645 ± 0.24 µM	–
Nc1ncnc2c1ncn2[C@@H]1O[C@H](CO)[C@@H](O)[C@@H]1O [Vidarabine, Arabinosyladenine]	8.042 ± 0.288 µM	–
CC(C)C(=O)OC[C@H]1O[C@@H](n2ccc(NO)nc2=O)[C@H](O)[C@@H]1O [Molnupiravir]	6.19 ± 0.275 µM	100% CPE Inhibitory Concentration (CPEIC100) (listed as molnupiravir): 6.19 µM
CC(C)=CCNc1ncnc2c1ncn2[C@@H]1O[C@H](CO)[C@@H](O)[C@H]1O [Riboprine, N ^6-(2-Isopentenyl)adenosine]	1.11 µM and 1.11 ± 0.047 µM	time at which utmost effectiveness against the Omicron variant is reached: 3.5 to 9.5 h
O=c1[nH]cnc2c([C@@H]3N[C@H](CO)[C@@H](O)[C@H]3O)c[nH]c12 [Forodesine]	1.6 ± 0.065 µM	time at which utmost effectiveness against the Omicron variant is reached: 3.5 to 9.5 h; 100% CPE Inhibitory Concentration (CPEIC100) (listed as forodesine): 1.6 µM
CC(C)Nc1nc2cc(Cl)c(Cl)cc2n1[C@H]1O[C@@H](CO)[C@H](O)[C@@H]1O [Maribavir]	7.986 ± 0.277 µM	–
CCC(CC)COC(=O)[C@H](C)N[P@](=O)(OC[C@H]1O[C@@](C#N)(c2ccc3c(N)ncnn23)[C@H](O)[C@@H]1O)Oc1ccccc1 [Remdesivir]	5.883 ± 0.255 µM	100% CPE Inhibitory Concentration (CPEIC100) (listed as remdesivir): 5.883 µM
